Results reported in ChEMBL document CHEMBL1140442, “Potent cannabinergic indole analogues as radioiodinatable brain imaging agents for the CB1 cannabinoid receptor” (J Med Chem, 2005).

Key:
Cannabinoid receptor 2 = Cannabinoid receptor 2 (Mus musculus, UniProt P47936); assay: Binding affinity towards mouse spleen cannabinoid receptor 2 using [3H]CP-55940; assay type: tissue-based
Cannabinoid receptor 1 [1] = target: Cannabinoid receptor 1 (Rattus norvegicus, UniProt P20272); assay: Binding affinity towards rat forebrain cannabinoid receptor 1 using [3H]CP-55940
Chain of Cannabinoid receptor 1 (Rattus norvegicus, UniProt P20272) (P20272 whole entry): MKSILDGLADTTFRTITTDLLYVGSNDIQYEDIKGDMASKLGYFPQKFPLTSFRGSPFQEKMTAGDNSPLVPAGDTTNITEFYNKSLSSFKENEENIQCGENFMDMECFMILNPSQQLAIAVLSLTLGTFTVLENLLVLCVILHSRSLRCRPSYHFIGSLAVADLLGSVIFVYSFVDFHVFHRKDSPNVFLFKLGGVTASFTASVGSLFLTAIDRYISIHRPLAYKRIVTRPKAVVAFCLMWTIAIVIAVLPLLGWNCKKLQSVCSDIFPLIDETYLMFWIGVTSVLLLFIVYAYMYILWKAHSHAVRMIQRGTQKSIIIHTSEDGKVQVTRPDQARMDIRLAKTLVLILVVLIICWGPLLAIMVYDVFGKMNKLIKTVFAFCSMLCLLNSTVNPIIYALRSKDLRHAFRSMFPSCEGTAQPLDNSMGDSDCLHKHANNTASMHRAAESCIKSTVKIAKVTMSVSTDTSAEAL

Cannabinoid receptor 1 [2] = target: T1, Cannabinoid receptor 1 (Mus musculus, UniProt P47746); assay: Binding affinity towards mouse hippocampal membranes cannabinoid receptor 1 using [3H]SR-141,716A
T1 sequence (P47746 whole entry): as the sequence (P20272 whole entry) above, with E95D counted along it

Cannabinoid receptor 1 [3] = target: T1, Cannabinoid receptor 1; assay: Binding affinity towards mouse hippocampal membranes cannabinoid receptor 1 using [131I]-(R)-8

Chain of Cannabinoid receptor 2 (P47936 whole entry): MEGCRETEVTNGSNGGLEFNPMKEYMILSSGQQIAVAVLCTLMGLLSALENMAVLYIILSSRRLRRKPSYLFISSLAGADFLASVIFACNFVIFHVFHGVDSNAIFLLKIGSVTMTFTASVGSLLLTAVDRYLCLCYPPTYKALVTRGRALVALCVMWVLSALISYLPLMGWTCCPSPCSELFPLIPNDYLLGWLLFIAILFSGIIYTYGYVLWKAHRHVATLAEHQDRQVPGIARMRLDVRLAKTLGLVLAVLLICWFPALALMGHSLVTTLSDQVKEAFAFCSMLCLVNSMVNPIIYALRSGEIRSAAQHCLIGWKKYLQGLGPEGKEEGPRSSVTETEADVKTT

| SMILES | Ki (Cannabinoid receptor 2) [nM] | Ki (Cannabinoid receptor 1 [1]) [nM] | Ki (Cannabinoid receptor 1 [2]) [nM] | Ki (Cannabinoid receptor 1 [3]) [nM] |
| --- | --- | --- | --- | --- |
| Cc1c(C(=O)c2ccccc2I)c2ccccc2n1CC1CCCCN1C (single isomer, unassigned; (-)) | 83 | 1200 |  |  |
| CN1CCCC[C@H]1Cn1cc(C(=O)c2ccccc2I)c2ccccc21 |  | 560 |  |  |
| CN1CCCCC1Cn1cc(C(=O)c2cccc3ccccc23)c2ccccc21 (configuration not stated) | 1.91 | 0.75 |  |  |
| CN1CCCCC1Cn1cc(C(=O)c2cccc3ccccc23)c2ccc(I)cc21 (configuration not stated) | 9.8 | 18 |  |  |
| CN1CCCCC1Cn1cc(C(=O)c2ccccc2I)c2ccccc21 (configuration not stated) |  |  | 1.3 | 0.2 |
| CN1CCCCC1Cn1cc(C(=O)c2ccc(I)c3ccccc23)c2ccccc21 (configuration not stated) | 5.3 |  |  |  |
| Cc1c(C(=O)c2ccccc2I)c2ccccc2n1CC1CCCCN1C (stereo in doubt; 5) | 34 | 34 |  |  |
| Cc1c(C(=O)c2ccc(I)cc2)c2ccccc2n1CC1CCCCN1C (configuration not stated) | 790 |  |  |  |
| Cc1c(C(=O)c2cccc(I)c2)c2ccccc2n1CC1CCCCN1C (configuration not stated) | 9600 | 2900 |  |  |
| Cc1c(C(=O)c2ccccc2I)c2ccccc2n1CC1CCCCN1C (single isomer, unassigned; (+)) | 10 | 6.7 |  |  |
